The values below come from US7728029B2, “Adamantyl-pyrazole carboxamides as inhibitors of 11β-hdroxysteroid dehydrogenase” (Hoffmann-La Roche Inc., priority 2006, dated 2010).

Assay [1] concerns the target T1, human 11betaHSD1 (Homo sapiens, UniProt P28845).
T1 construct: stably transfected with full-length human 11betaHSD1 cDNA; expressed in transfected cells; host or cells: HEK-293
Kind of assay: Human Hek Assay: cortisone to cortisol conversion in HEK-293 cells stably transfected with human 11betaHSD1, cortisol by ELISA. To be noted: HEK-293 cells transfected with human 11betaHSD1; 100 nM cortisone, 1 hour; read-out: humHEK (IC50). It counts as cell-based. The protocol: HEK-293 cells stably transfected with full-length human 11betaHSD1 cDNA were propagated and expanded in DMEM high glucose media (Invitrogen Cat# 11995-065), supplemented with 10% FCS (Invitrogen Cat# 10082-147), pen/strep (10 μg/mL), and geneticin (10 μg/mL). One day prior to assay, cells were released from flasks using trypsin/EDTA, centrifuged, and washed with plating media (DMEM high glucose, without phenol red; Invitrogen Cat# 21063-029, supplemented with 2% charcoal stripped FCS; Gemini Cat# A22311P). From a 250,000 cells/mL suspension in plating media, 200 μL of cells were seeded into each well of a 96-well coated plate (BioCoat Cat#356461) and cultured overnight at 37° C. The following day, serially diluted 11betaHSD1 inhibitor compounds dissolved in DMSO were added to plating media supplemented with BSA (2 mg/mL final). The final DMSO concentration was 1%. Media was aspirated from plates, and compounds in media were added to each well. The plates were incubated at 37 degrees C. for 1 hour to allow for cellular uptake of compounds. 10 μL of substrate (cortisone) was then added to each well (100 nM final concentration) and incubated for 1 hour at 37 degrees C. Plates were then transferred to ice and 80 μL of media transferred to a 96-well plate and stored at −30° C.
Quantitation of cortisol in cell media was performed by competitive ELISA using ELISA-Light (Tropix Cat# T10206/EL100S4), anti-cortisol EIA antibody (Assay Designs, Inc. Cat#80-1148), and cortisol-enzyme conjugate (Assay Designs, Inc. Cat# 80-1147). 384-well plates (Falcon Cat#3988) were precoated with anti-mouse IgG (Sigma Cat# M-1397) suspended in 0.9% NaCl (5 mg/mL), 50 μL per well, overnight at 4 degrees C. Plates were washed with PBS, 0.1% Tween-20, then washed with PBS alone. Plates were blocked with Blocking Buffer (Tropix Cat# AI075) for 2 hours at room temperature. The plates were then washed as previously described. Assay samples were thawed, diluted 1:4 in DMEM, 2 mg/mL BSA, 1% DMSO, and 24 μL was transferred to wells of a pre-coated 384-well plate, as well as varying amounts of cortisol standard. To each well, 12 μL of cortisol-conjugate and 12 μL of anti-cortisol EIA antibody were added and incubated 2 hrs at room temperature on a orbital plate shaker. The wells were then emptied by inversion, then washed three times with 100 μL of Wash Buffer (Tropix), and then 2 times with 100 μL of Assay Buffer (Tropix). 60 μL of CDP-STAR (Tropix) was added to each well and incubated 10 minutes at room temperature. Chemiluminescence was measured using a Victor V Reader (Perkin Elmer). Cortisol in each sample was interpolated from a standard curve generated with known amounts of cortisol. IC50 values were calculated using the curve fitting software XLFit3 (IDBS).
In general terms: An ELISA detects its analyte on a solid surface through an enzyme-linked reagent.

Assay [2] addresses T2, human 11-β-HSD1 (Homo sapiens, UniProt P28845).
T2 construct: expressed in transfected cells; host or cells: H4IIe
Kind of assay: Human H4IIE Assay: steroid conversion assay in H4IIe cells stably transfected with human 11-β-HSD1 cDNA, cortisol by ELISA. The format is cell-based. To be noted: H4IIe cells transfected with human 11-β-HSD1; 200 nM cortisone, 120 minutes; read-out: HumH4IIe (IC50). Here is the method: H4IIe cells stably transfected with the human 11-β-HSD1 cDNA (humH4IIe) were maintained in Dulbeccos Modified Essential Medium (DMEM)+10% fetal bovine serum (FBS) containing Penicillin (100 IU/ml) and Streptomycin (100 μg/ml), Geneticin (800 μg/ml) and L-Glutamine (2 mM) at 37° C. in a humidified atmosphere (95% air, 5% CO2).
humH4IIe cells at 80% confluence in a 225 cm^2 flask were washed with PBS then detached with warm Trypsin/EDTA. The cells were counted and resuspended in Dulbeccos Modified Essential Medium lacking phenol red (DMEM) containing 2% stripped serum, at a concentration of 100,000 cells per 200 μl, and plated in a 96-well cell culture plate (precoated with Poly-Lysine). The cells were incubated overnight at 37° C. in a humidified atmosphere (95% air, 5% CO2).
Conversion assays were performed one day after seeding 96-well plates. The media was removed and replaced with 100 ul Dulbeccos Modified Essential Medium without phenol red (DMEM) containing 2 mg/ml Bovine Serum Albumin (BSA)+1% DMSO or test compound dissolved in DMSO.
The cells were incubated with test compound for 60 minutes at 37° C. in a humidified atmosphere (95% air, 5% CO2). After 60 minutes, cortisone was added to 200 nM final, and the cells were incubated for 120 minutes at 37° C. in a humidified atmosphere (95% air, 5% CO2).
The reaction was stopped by transferring 80 μl of media to an empty 96-well plate. Samples were stored at −20° C. until assayed for cortisol concentration using an ELISA method.

T2 sequence (P28845 whole entry): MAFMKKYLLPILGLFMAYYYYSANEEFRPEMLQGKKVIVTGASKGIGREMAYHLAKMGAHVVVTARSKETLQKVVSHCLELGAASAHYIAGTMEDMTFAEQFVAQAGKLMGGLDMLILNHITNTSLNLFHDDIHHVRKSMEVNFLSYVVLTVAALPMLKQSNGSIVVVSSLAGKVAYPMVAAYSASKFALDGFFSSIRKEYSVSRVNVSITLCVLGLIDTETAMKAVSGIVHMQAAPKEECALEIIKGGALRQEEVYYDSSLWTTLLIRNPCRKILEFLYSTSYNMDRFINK
T1 sequence (P28845 whole entry): as above

By IC50 is commonly meant the point on the concentration scale where inhibition reaches its midpoint. `Cn1ncc(C(=O)NC2C3CC4CC2CC(O)(C4)C3)c1-n1cccc1` (stereo not shown) [Example 1, 1-methyl-5-pyrrol-1-yl-1H-pyrazole-4-carboxylic acid (5-hydroxy-adamantan-2-yl)-amide]: the IC50 in assay [1] was found to be 39.9 nM. Take `Cn1ncc(C(=O)N[C@H]2C3CC4CC2C[C@](O)(C4)C3)c1-n1cccc1` [Example 2, trans-1-Methyl-5-pyrrol-1-yl-1H-pyrazole-4-carboxylic acid (5-hydroxy-adamantan-2-yl)-amide]: in assay [1], the IC50 was 22.2 nM. Take `Cn1ncc(C(=O)NC2C3CC4CC(C3)CC2C4)c1Cl` (stereo not shown) [Example 5, 5-Chloro-1-methyl-1H-pyrazole-4-carboxylic acid adamantan-2-ylamide]: in assay [1], the IC50 worked out at 189 nM. On the same count and under the same terms, for `CC(C)(C)n1ncc(C(=O)NC2C3CC4CC(C3)CC2C4)c1C(F)(F)F` (stereo not shown) [Example 6, 1-tert-butyl-5-trifluoromethyl-1H-pyrazole-4-carboxylic acid adamantan-2-ylamide] the value was 9.8 nM; for `CC(C)(C)n1ncc(C(=O)N[C@H]2C3CC4CC2C[C@](O)(C4)C3)c1C(F)(F)F` [Example 7, trans-1-tert-butyl-5-trifluoromethyl-1H-pyrazole-4-carboxylic acid (5-hydroxy-adamantan-2-yl)-amide], 601 nM. The same measure, in the same setting: in the case of `CC(C)(C)n1ncc(C(=O)N[C@H]2C3CC4CC2C[C@@](O)(C4)C3)c1C(F)(F)F` [Example 8, cis-1-tert-butyl-5-trifluoromethyl-1H-pyrazole-4-carboxylic acid (5-hydroxy-adamantan-2-yl)-amide] it was 20.2 nM; in that of `Cn1ncc(C(=O)N[C@H]2C3CC4CC2C[C@](O)(C4)C3)c1-n1cccn1` [Example 9, trans-2′-Methyl-2′H-[1,3′]bipyrazolyl-4′-carboxylic acid (5-hydroxy-adamantan-2-yl)-amide], 38.6 nM; in that of `O=C(NC1C2CC3CC(C2)CC1C3)c1cnn(C2CC2)c1C(F)(F)F` (stereo not shown) [Example 12, 1-cyclopropyl-5-trifluoromethyl-1H-pyrazole-4-carboxylic acid adamantan-2-ylamide], 22.2 nM.

On to `CN1CCN(c2c(C(=O)NC3C4CC5CC(C4)CC3C5)cnn2C)CC1` (stereo not shown) [Example 14, 1-Methyl-5-(4-methyl-piperazin-1-yl)-1H-pyrazole-4-carboxylic acid adamantan-2-ylamide], for which the IC50 in assay [1] amounted to 23.3 nM. As to `Cn1ncc(C(=O)NC2C3CC4CC(C3)CC2C4)c1N1CCOCC1` (stereo not shown) [Example 22, 1-methyl-5-morpholin-4-yl-1H-pyrazole-4-carboxylic acid adamantan-2-ylamide], the IC50 in assay [1] came out at 16.6 nM. Take `COCCNc1c(C(=O)NC2C3CC4CC(C3)CC2C4)cnn1C` (stereo not shown) [Example 23, 5-(2-Methoxy-ethylamino)-1-methyl-1H-pyrazole-4-carboxylic acid adamantan-2-ylamide]: the IC50 in assay [1] amounted to 71.5 nM. Regarding `COCCN(C)c1c(C(=O)NC2C3CC4CC(C3)CC2C4)cnn1C` (stereo not shown) [Example 32, 5-[(2-Methoxy-ethyl)-methyl-amino]-1-methyl-1H-pyrazole-4-carboxylic acid adamantan-2-ylamide], the 50% inhibitory concentration (IC50) in assay [1] was 26.2 nM. The same measure, in the same setting: in the case of `CC(C)(C)n1ncc(C(=O)NC2C3CC4CC(C3)CC2C4)c1-n1cccn1` (stereo not shown) [Example 33, 2′-tert-Butyl-2′H-[1,3′]bipyrazolyl-4′-carboxylic acid adamantan-2-ylamide] it was 6.8 nM. With `CC(C)(C)n1ncc(C(=O)N[C@H]2C3CC4CC2C[C@](O)(C4)C3)c1Cl` [Example 34, trans-1-tert-Butyl-5-chloro-1H-pyrazole-4-carboxylic acid (5-hydroxy-adamantan-2-yl)-amide], the IC50 turned out to be 5.6 nM in assay [2] and 19.2 nM in assay [1]. Regarding `CC(C)(C)n1ncc(C(=O)N[C@H]2C3CC4CC2C[C@](O)(C4)C3)c1-n1cccn1` [Example 35, trans-2′-tert-Butyl-2′H-[1,3′]bipyrazolyl-4′-carboxylic acid (5-hydroxy-adamantan-2-yl)-amide], the figures for the half-inhibitory concentration (IC50) in assay [2] and in assay [1] were 0.5 nM and 20 nM, respectively. Consider `CC(=O)NC12CC3CC(C1)C(NC(=O)c1cnn(C(C)(C)C)c1Cl)C(C3)C2` (stereo not drawn) [Example 46, trans-1-tert-Butyl-5-chloro-1H-pyrazole-4-carboxylic acid (5-acetylamino-adamantan-2-yl)-amide], for which the IC50 in assay [2] was 8.5 nM; in assay [1] it was 66.2 nM.

For the compound `CC(=O)NC12CC3CC(C1)C(NC(=O)c1cnn(C(C)(C)C)c1C(F)(F)F)C(C3)C2` (stereo not drawn) [Example 48, trans-1-tert-Butyl-5-trifluoromethyl-1H-pyrazole-4-carboxylic acid (5-acetylamino-adamantan-2-yl)-amide], the concentration for half-maximal inhibition (IC50) in assay [2] amounted to 0.3 nM; in assay [1], 18.1 nM. Regarding `CC(=O)NC12CC3CC(C1)C(NC(=O)c1cnn(C(C)(C)C)c1-n1cccn1)C(C3)C2` (stereo not drawn) [Example 50, trans-2′-tert-Butyl-2′H-[1,3′]bipyrazolyl-4′-carboxylic acid (5-acetylamino-adamantan-2-yl)-amide], the figures for the IC50 in assay [2] and in assay [1] were 8 nM and 23.8 nM, respectively.

Turning to `Cn1ncc(C(=O)NC2C3CC4CC2CC(NS(C)(=O)=O)(C4)C3)c1-n1cccn1` (stereo not drawn) [Example 53, trans-2′-Methyl-2′H-[1,3′]bipyrazolyl-4′-carboxylic acid (5-methanesulfonylamino-adamantan-2-yl)-amide], the concentration for half-maximal inhibition (IC50) was 6 nM in assay [2] and 76.9 nM in assay [1]. With `COCCOCCn1ncc(C(=O)N[C@H]2C3CC4CC2C[C@](O)(C4)C3)c1-n1cccn1` [Example 76, trans-2′-[2-(2-Methoxyethoxy)-ethyl]-2′H-[1,3′]bipryazolyl-4′-carboxylic acid (5-hydroxyadamantan-2-yl)-amide], the IC50 in assay [2] was 15.3 nM. With `CC(C)(C)OCCn1ncc(C(=O)N[C@H]2C3CC4CC2C[C@](O)(C4)C3)c1C(F)(F)F` [Example 77, trans-1-(2-tert-Butoxyethyl)-5-trifluoromethyl-1H-pyrazole-4-carboxylic acid (5-hydroxy-adamantan-2-yl)-amide], the IC50 in assay [2] is 4.6 nM. For “trans-2′-(2-Methoxyethyl)-2′H-[1,3′]bipyrazolyl-4′-carboxylic acid (5-hydroxy-adamantan-2-yl-amide [Example 73]”, the IC50 in assay [2] is 0.6 nM; in assay [1] it was 22.9 nM.

On to “trans-2′-Methyl-2′H-[1,3′]bipyrazolyl-4′-carboxylic acid (5-acetylamino-adamantan-2-yl)-amide [Example 45]”, for which the values for the IC50 in assay [2] and in assay [1] were 5.9 nM and 48.2 nM, respectively.
